“And” between values parts separate entries of the source, which are not always exact repeats. Equal entries are not always repeated.
What was measured:
[1] = system: D-566MG; assay: cells; type: functional, cell-based; settings: Homo sapiens
[2] = system: DMS-153; assay: cells; type: functional, cell-based; settings: Homo sapiens
Description: SANGER: Inhibition of human DMS-153 cell growth in a cell viability assay.

[3] = system: EB-3; assay: cells; type: functional, cell-based; settings: Homo sapiens;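 note: human EB-3 cells, growth inhibition read out via a cell viability assay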
Description: SANGER: Inhibition of human EB-3 cell growth in a cell viability assay.

[4] = system: EB2; assay: cells; type: functional, cell-based; settings: Homo sapiens;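 note: growth inhibition of EB2 cells, read out with a cell viability assay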
Description: SANGER: Inhibition of human EB2 cell growth in a cell viability assay.

[5] = system: ECC12; assay: cells; type: functional, cell-based; settings: Homo sapiens
Description: SANGER: Inhibition of human ECC12 cell growth in a cell viability assay.

[6] = system: EPLC-272H; assay: cells; type: functional, cell-based; settings: Homo sapiens
Description: SANGER: Inhibition of human EPLC-272H cell growth in a cell viability assay.

[7] = system: EW-22; assay: cells; type: functional, cell-based; settings: Homo sapiens;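 note: growth inhibition of the EW-22 cell line, measured with a cell viability readout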
Description: SANGER: Inhibition of human EW-22 cell growth in a cell viability assay.

[8] = system: HCC1599; assay: cells; type: functional, cell-based; settings: Homo sapiens;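 note: growth inhibition of HCC1599 cells, read out in a cell viability assay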
Description: SANGER: Inhibition of human HCC1599 cell growth in a cell viability assay.

[9] = system: HSC-4; assay: cells; type: functional, cell-based, Homo sapiens;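 note: growth inhibition of human HSC-4 cells, read out with a cell viability assay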
Description: SANGER: Inhibition of human HSC-4 cell growth in a cell viability assay.

[10] = system: IM-9; assay: SANGER: Inhibition of human IM-9 cell growth in a cell viability assay.; type: functional, cell-based
[11] = system: IMR-5; assay: cells; type: functional, cell-based; settings: Homo sapiens;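 note: growth inhibition of human IMR-5 cells, read out with a cell viability assay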
Description: SANGER: Inhibition of human IMR-5 cell growth in a cell viability assay.

[12] = system: K052; assay: cells; type: functional, cell-based; settings: Homo sapiens;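 note: Read-out from a cell viability assay, IC50 reflecting suppression of K052 cell growth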
Description: SANGER: Inhibition of human K052 cell growth in a cell viability assay.

[13] = system: KARPAS-422; assay: cells; type: functional, cell-based; settings: Homo sapiens
Description: SANGER: Inhibition of human KARPAS-422 cell growth in a cell viability assay.

[14] = system: KNS-62; assay: cells; type: functional, cell-based; settings: Homo sapiens;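 note: inhibition of cell growth, read out with a cell viability assay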
Description: SANGER: Inhibition of human KNS-62 cell growth in a cell viability assay.

[15] = system: LB647-SCLC; assay: cells; type: functional, cell-based; settings: Homo sapiens;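 note: cell growth inhibition, read out by a viability assay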
Description: SANGER: Inhibition of human LB647-SCLC cell growth in a cell viability assay.

[16] = system: LC-1F; assay: cells; type: functional, cell-based; settings: Homo sapiens;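 note: growth inhibition of human LC-1F cells, read out with a cell viability assay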
Description: SANGER: Inhibition of human LC-1F cell growth in a cell viability assay.

[17] = system: LOUCY; assay: cells; type: functional, cell-based; settings: Homo sapiens;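 note: growth inhibition of human LOUCY cells, read out with a cell viability assay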
Description: SANGER: Inhibition of human LOUCY cell growth in a cell viability assay.

[18] = system: MONO-MAC-6; assay: cells; type: functional, cell-based; settings: Homo sapiens;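 note: cell viability assay measuring growth inhibition of human MONO-MAC-6 cells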
Description: SANGER: Inhibition of human MONO-MAC-6 cell growth in a cell viability assay.

[19] = system: MRK-nu-1; assay: cells; type: functional, cell-based; settings: Homo sapiens;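 note: cell viability assay measuring growth suppression of human MRK-nu-1 cells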
Description: SANGER: Inhibition of human MRK-nu-1 cell growth in a cell viability assay.

[20] = system: NB1; assay: cells; type: functional, cell-based; settings: Homo sapiens;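 note: reduction of NB1 cell proliferation, read out with a viability assay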
Description: SANGER: Inhibition of human NB1 cell growth in a cell viability assay.

[21] = system: NCI-H1048; assay: cells; type: functional, cell-based; settings: Homo sapiens;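 note: growth inhibition of human NCI-H1048 cells, read out with a cell viability assay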
Description: SANGER: Inhibition of human NCI-H1048 cell growth in a cell viability assay.

[22] = system: NCI-H1522; assay: cells; type: functional, cell-based; settings: Homo sapiens;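 note: growth inhibition of NCI-H1522 cells, read out with a cell viability assay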
Description: SANGER: Inhibition of human NCI-H1522 cell growth in a cell viability assay.

[23] = system: NCI-H1573; assay: cells; type: functional, cell-based; settings: Homo sapiens;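 note: growth inhibition of NCI-H1573 cells, read out with a cell viability assay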
Description: SANGER: Inhibition of human NCI-H1573 cell growth in a cell viability assay.

[24] = system: NCI-H1666; assay: cells; type: functional, cell-based; settings: Homo sapiens;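 note: growth inhibition of the cell line, read out with a cell viability assay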
Description: SANGER: Inhibition of human NCI-H1666 cell growth in a cell viability assay.

[25] = system: NCI-H1694; assay: cells; type: functional, cell-based; settings: Homo sapiens;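 note: cell viability assay measuring inhibition of growth in human NCI-H1694 cells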
Description: SANGER: Inhibition of human NCI-H1694 cell growth in a cell viability assay.

[26] = system: NCI-H1882; assay: cells; type: functional, cell-based; settings: Homo sapiens
Description: SANGER: Inhibition of human NCI-H1882 cell growth in a cell viability assay.

[27] = system: NCI-H1963; assay: cells; type: functional, cell-based; settings: Homo sapiens
Description: SANGER: Inhibition of human NCI-H1963 cell growth in a cell viability assay.

[28] = system: NCI-H2009; assay: cells; type: functional, cell-based, Homo sapiens;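 note: cell viability assay measuring inhibition of NCI-H2009 cell growth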
Description: SANGER: Inhibition of human NCI-H2009 cell growth in a cell viability assay.

[29] = system: NCI-H2196; assay: cells; type: functional, cell-based; settings: Homo sapiens;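 note: cell viability assay used as the readout of growth inhibition in NCI-H2196 cells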
Description: SANGER: Inhibition of human NCI-H2196 cell growth in a cell viability assay.

[30] = system: NCI-H2227; assay: cells; type: functional, cell-based; settings: Homo sapiens;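 note: growth inhibition of the human cell line, read out with a cell viability assay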
Description: SANGER: Inhibition of human NCI-H2227 cell growth in a cell viability assay.

[31] = system: NCI-H2291; assay: cells; type: functional, cell-based; settings: Homo sapiens
Description: SANGER: Inhibition of human NCI-H2291 cell growth in a cell viability assay.

[32] = system: NCI-H322M; assay: cells; type: functional, cell-based; settings: Homo sapiens;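 note: cell viability assay measuring inhibition of growth of human NCI-H322M cells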
Description: SANGER: Inhibition of human NCI-H322M cell growth in a cell viability assay.

[33] = system: NCI-H522; assay: cells; type: functional, cell-based, Homo sapiens;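 note: cell viability assay measuring growth inhibition of human NCI-H522 cells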
Description: SANGER: Inhibition of human NCI-H522 cell growth in a cell viability assay.

[34] = system: NCI-H64; assay: cells; type: functional, cell-based; settings: Homo sapiens;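 note: growth inhibition of NCI-H64 cells, read out with a cell viability assay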
Description: SANGER: Inhibition of human NCI-H64 cell growth in a cell viability assay.

[35] = system: NCI-H719; assay: cells; type: functional, cell-based; settings: Homo sapiens;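 note: growth inhibition of the cultured cell line, read out with a viability assay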
Description: SANGER: Inhibition of human NCI-H719 cell growth in a cell viability assay.

[36] = system: P31-FUJ; assay: cells; type: functional, cell-based; settings: Homo sapiens;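 note: growth inhibition of P31-FUJ cells, read out with a viability assay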
Description: SANGER: Inhibition of human P31-FUJ cell growth in a cell viability assay.

[37] = system: PF-382; assay: cells; type: functional, cell-based; settings: Homo sapiens
Description: SANGER: Inhibition of human PF-382 cell growth in a cell viability assay.

[38] = system: REH; assay: cells; type: functional, cell-based; settings: Homo sapiens;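 note: growth inhibition of REH cells determined with a cell viability read-out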
Description: SANGER: Inhibition of human REH cell growth in a cell viability assay.

[39] = system: RL95-2; assay: cells; type: functional, cell-based; settings: Homo sapiens;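 note: RL95-2 growth inhibition determined through a cell viability readout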
Description: SANGER: Inhibition of human RL95-2 cell growth in a cell viability assay.

[40] = system: SCC-3; assay: cells; type: functional, cell-based; settings: Homo sapiens;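 note: cell viability assay measuring inhibition of SCC-3 cell growth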
Description: SANGER: Inhibition of human SCC-3 cell growth in a cell viability assay.

[41] = system: SIG-M5; assay: cells; type: functional, cell-based; settings: Homo sapiens;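 note: cell viability assay read-out, measuring how strongly growth of cultured human SIG-M5 cells is inhibited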
Description: SANGER: Inhibition of human SIG-M5 cell growth in a cell viability assay.

[42] = system: SIMA; assay: cells; type: functional, cell-based, Homo sapiens;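 note: growth inhibition of SIMA cells, measured with a cell viability readout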
Description: SANGER: Inhibition of human SIMA cell growth in a cell viability assay.

[43] = system: SK-MM-2; assay: cells; type: functional, cell-based; settings: Homo sapiens;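 note: growth inhibition of human SK-MM-2 cells, read out with a cell viability assay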
Description: SANGER: Inhibition of human SK-MM-2 cell growth in a cell viability assay.

[44] = system: SNU-423; assay: cells; type: functional, cell-based, Homo sapiens
Description: SANGER: Inhibition of human SNU-423 cell growth in a cell viability assay.

[45] = system: SU-DHL-1; assay: SANGER: Inhibition of human SU-DHL-1 cell growth in a cell viability assay.; type: functional, cell-based
[46] = system: SUP-T1; assay: cells; type: functional, cell-based; settings: Homo sapiens;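 note: growth inhibition of human SUP-T1 cells, read out as cell viability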
Description: SANGER: Inhibition of human SUP-T1 cell growth in a cell viability assay.

[47] = system: TALL-1; assay: cells; type: functional, cell-based; settings: Homo sapiens;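 note: growth inhibition of cultured human TALL-1 cells, read out by a cell viability assay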
Description: SANGER: Inhibition of human TALL-1 cell growth in a cell viability assay.

[48] = system: A549; assay: cells; type: functional, cell-based; settings: Homo sapiens;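 note: growth inhibition of A549 cells, read out with a cell viability assay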
Description: SANGER: Inhibition of human A549 cell growth in a cell viability assay.

[49] = system: BC1 cell line; assay: SANGER: Inhibition of human BC-1 cell growth in a cell viability assay.; type: functional, cell-based
[50] = system: BC-3; assay: cells; type: functional, cell-based; settings: Homo sapiens;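 note: cell viability assay measuring growth inhibition of human BC-3 cells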
Description: SANGER: Inhibition of human BC-3 cell growth in a cell viability assay.

[51] = system: BT-549; assay: cells; type: functional, cell-based; settings: Homo sapiens
Description: SANGER: Inhibition of human BT-549 cell growth in a cell viability assay.

[52] = system: CA46; assay: cells; type: functional, cell-based; settings: Homo sapiens;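 note: growth inhibition of human CA46 cells, read out by a cell viability assay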
Description: SANGER: Inhibition of human CA46 cell growth in a cell viability assay.

[53] = system: TE-15; assay: cells; type: functional, cell-based; settings: Homo sapiens;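 note: cell viability readout of growth inhibition in TE-15 cells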
Description: SANGER: Inhibition of human TE-15 cell growth in a cell viability assay.

[54] = system: THP-1; assay: cells; type: functional, cell-based; settings: Homo sapiens;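 note: growth inhibition of THP-1 cells, read out via a cell viability assay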
Description: SANGER: Inhibition of human THP-1 cell growth in a cell viability assay.

[55] = system: U-698-M; assay: cells; type: functional, cell-based; settings: Homo sapiens
Description: SANGER: Inhibition of human U-698-M cell growth in a cell viability assay.

[56] = system: UACC-812; assay: cells; type: functional, cell-based; settings: Homo sapiens
Description: SANGER: Inhibition of human UACC-812 cell growth in a cell viability assay.

[57] = system: WSU-NHL; assay: cells; type: functional, cell-based; settings: Homo sapiens;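 note: growth inhibition of human WSU-NHL cells, read out with a cell viability assay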
Description: SANGER: Inhibition of human WSU-NHL cell growth in a cell viability assay.

[58] = system: CESS; assay: SANGER: Inhibition of human CESS cell growth in a cell viability assay.; type: functional, cell-based
[59] = system: CHP-126; assay: cells; type: functional, cell-based; settings: Homo sapiens
Description: SANGER: Inhibition of human CHP-126 cell growth in a cell viability assay.

Cc1cc([C@@H](C)Nc2ccccc2C(=O)O)c2nc(N3CCOCC3)cc(=O)n2c1 [AZD-6482]
IC50 [1]: 3.07 µM | IC50 [2]: > 5.12 µM | IC50 [3]: > 5.12 µM | IC50 [4]: 1.75 µM | IC50 [5]: > 5.12 µM | IC50 [6]: > 5.12 µM | IC50 [7]: > 5.12 µM | IC50 [8]: > 5.12 µM | IC50 ([9]; hsc-4): > 5.12 µM | IC50 [10]: > 5.12 µM | IC50 [11]: > 5.12 µM | IC50 [12]: > 5.12 µM | IC50 [13]: 1.54 µM | IC50 [14]: > 5.12 µM | IC50 [15]: > 5.12 µM | IC50 [16]: > 5.12 µM | IC50 [17]: > 5.12 µM | IC50 [18]: > 5.12 µM | IC50 [19]: > 5.12 µM | IC50 [20]: > 5.12 µM | IC50 [21]: 1.23 µM | IC50 [22]: > 5.12 µM | IC50 [23]: > 5.12 µM | IC50 [24]: > 5.12 µM | IC50 [25]: > 5.12 µM | IC50 [26]: > 5.12 µM | IC50 [27]: > 5.12 µM | IC50 ([28]; nci-h2009): 5.01 µM and > 5.12 µM | IC50 [29]: > 5.12 µM | IC50 [30]: > 5.12 µM | IC50 [31]: 1.58 µM | IC50 [32]: > 5.12 µM | IC50 ([33]; nci-h522): > 5.12 µM | IC50 [34]: 2.62 µM | IC50 [35]: > 5.12 µM | IC50 [36]: > 5.12 µM | IC50 [37]: > 5.12 µM | IC50 [38]: > 5.12 µM | IC50 [39]: > 5.12 µM | IC50 [40]: > 5.12 µM | IC50 [41]: > 5.12 µM | IC50 ([42]; sima): > 5.12 µM | IC50 [43]: > 5.12 µM | IC50 ([44]; snu-423): 1.57 µM and > 5.12 µM | IC50 [45]: 0.568 µM | IC50 [46]: > 5.12 µM | IC50 [47]: > 5.12 µM | IC50 [48]: > 5.12 µM | IC50 [49]: > 5.12 µM | IC50 [50]: > 5.12 µM | IC50 [51]: > 5.12 µM | IC50 [52]: > 5.12 µM | IC50 [53]: 4.67 µM | IC50 [54]: > 5.12 µM | IC50 [55]: > 5.12 µM | IC50 [56]: > 5.12 µM | IC50 [57]: > 5.12 µM | IC50 [58]: 4.8 µM | IC50 [59]: > 5.12 µM

CN(c1ncccc1CNc1nc(Nc2ccc3c(c2)CC(=O)N3)ncc1C(F)(F)F)S(C)(=O)=O [PF-00562271]
IC50 [2]: > 2.56 µM | IC50 [3]: > 2.56 µM | IC50 [4]: > 2.56 µM | IC50 [5]: > 2.56 µM | IC50 [8]: > 2.56 µM | IC50 ([9]; Homo sapiens, HSC-4): > 2.56 µM | IC50 [10]: > 2.56 µM | IC50 [11]: > 2.56 µM | IC50 [12]: > 2.56 µM | IC50 [13]: > 2.56 µM | IC50 [15]: > 2.56 µM | IC50 [16]: > 2.56 µM | IC50 [17]: 2.26 µM | IC50 [18]: 2.41 µM | IC50 [19]: > 2.56 µM | IC50 [20]: > 2.56 µM | IC50 [22]: > 2.56 µM | IC50 [25]: > 2.56 µM | IC50 [26]: > 2.56 µM | IC50 [27]: > 2.56 µM | IC50 ([28]; Homo sapiens, NCI-H2009): > 2.56 µM | IC50 [29]: > 2.56 µM | IC50 [30]: > 2.56 µM | IC50 [32]: > 2.56 µM | IC50 ([33]; Homo sapiens, NCI-H522): > 2.56 µM | IC50 [34]: > 2.56 µM | IC50 [35]: > 2.56 µM | IC50 [36]: > 2.56 µM | IC50 [37]: > 2.56 µM | IC50 [38]: > 2.56 µM | IC50 [39]: > 2.56 µM | IC50 [40]: > 2.56 µM | IC50 [41]: 1.48 µM | IC50 ([42]; Homo sapiens, SIMA): > 2.56 µM | IC50 [43]: > 2.56 µM | IC50 ([44]; Homo sapiens, SNU-423): > 2.56 µM | IC50 [45]: > 2.56 µM | IC50 [46]: > 2.56 µM | IC50 [47]: > 2.56 µM | IC50 [49]: 1.62 µM | IC50 [50]: > 2.56 µM | IC50 [52]: > 2.56 µM | IC50 [53]: > 2.56 µM | IC50 [54]: > 2.56 µM | IC50 [55]: > 2.56 µM | IC50 [56]: > 2.56 µM | IC50 [57]: > 2.56 µM | IC50 [58]: > 2.56 µM | IC50 [59]: > 2.56 µM

Cc1cnc(-c2cnc(NCCNc3ccc(C#N)cn3)nc2-c2ccc(Cl)cc2Cl)[nH]1 [LADUVIGLUSIB]
IC50 [2]: > 2.56 µM | IC50 [3]: > 2.56 µM | IC50 [4]: > 2.56 µM | IC50 [5]: > 2.56 µM | IC50 [8]: > 2.56 µM | IC50 ([9]; Homo sapiens, HSC-4): > 2.56 µM | IC50 [10]: > 2.56 µM | IC50 [11]: > 2.56 µM | IC50 [12]: > 2.56 µM | IC50 [13]: > 2.56 µM | IC50 [15]: > 2.56 µM | IC50 [16]: > 2.56 µM | IC50 [17]: > 2.56 µM | IC50 [18]: > 2.56 µM | IC50 [19]: > 2.56 µM | IC50 [20]: > 2.56 µM | IC50 [22]: > 2.56 µM | IC50 [25]: > 2.56 µM | IC50 [26]: > 2.56 µM | IC50 [27]: > 2.56 µM | IC50 ([28]; Homo sapiens, NCI-H2009): > 2.56 µM | IC50 [29]: > 2.56 µM | IC50 [30]: > 2.56 µM | IC50 [32]: > 2.56 µM | IC50 ([33]; Homo sapiens, NCI-H522): > 2.56 µM | IC50 [34]: > 2.56 µM | IC50 [35]: > 2.56 µM | IC50 [36]: > 2.56 µM | IC50 [37]: > 2.56 µM | IC50 [38]: > 2.56 µM | IC50 [39]: > 2.56 µM | IC50 [40]: > 2.56 µM | IC50 [41]: > 2.56 µM | IC50 ([42]; Homo sapiens, SIMA): > 2.56 µM | IC50 [43]: > 2.56 µM | IC50 ([44]; Homo sapiens, SNU-423): 2.5 µM | IC50 [45]: > 2.56 µM | IC50 [46]: > 2.56 µM | IC50 [47]: > 2.56 µM | IC50 [49]: > 2.56 µM | IC50 [50]: > 2.56 µM | IC50 [52]: > 2.56 µM | IC50 [53]: > 2.56 µM | IC50 [54]: > 2.56 µM | IC50 [55]: > 2.56 µM | IC50 [56]: > 2.56 µM | IC50 [57]: > 2.56 µM | IC50 [58]: > 2.56 µM | IC50 [59]: > 2.56 µM
